Measurements as given in EPA's ToxValDB 9.5.
Several values for one entry are separate records, joined by “and”; a condition that tells them apart may be missing. Identical values can stand only once.

What was measured:
Rattus norvegicus [1] = system: Rattus norvegicus
Oryctolagus sp. = conditions: acute, dermal
Rattus norvegicus [2] = system: Rattus norvegicus; remark: listed apart in the source
Rattus norvegicus [3] = conditions: reproduction developmental; duration: 364 days; oral; drinking water; M/F; Sprague-Dawley; reproductive
Rattus norvegicus [4] = conditions: oral
Mus musculus [5] = conditions: oral
Mus musculus [6] = conditions: oral, M
Rattus norvegicus [7] = conditions: Hershberger, oral, gavage
[8] = subchronic, duration: 13 weeks, oral, diet, M/F, neurological dysfunction
[9] = reproduction developmental, oral, drinking water, F, reproductive effects
[10] = chronic, duration: 2 years, oral, diet, M/F, reduced body weight
[11] = chronic, duration: 2 years, oral, diet, M/F, increased levels of serum proteins and increased liver weight
[12] = chronic, duration: 2 years, oral, diet, M/F, increased absolute and relative liver weight
[13] = duration: 5 days, Sprague-Dawley, active + Antiandrogenic + anti-androgenic + PPS delayed by 5 days / single dose tested (liver wt?)
[14] = developmental, duration: 14 days, gavage, NMRI, developmental
[15] = short-term, duration: 28 days, gavage, M, Sprague-Dawley, Clinical Observation: Spontaneous locomotion decrease, Respiratory rate decrease, Prone position Eyelid closure Staggering gait Incomplete …
[16] = subchronic, duration: 13 weeks, diet, M, B6C3F1
[17] = subchronic, duration: 13 weeks, oral, diet, Fischer 344
[18] = duration: 10 days, Wistar, active + Negative + Antiandrogenic + anti-androgenic

CC(C)CC(=O)CC(C)CC(C)C (stereo not drawn) [2,6,8-Trimethyl-4-nonanone]
LD50 (Rattus norvegicus [1]; acute, oral, gavage): 8470 mg/kg
NOAEL (Rattus norvegicus [1]; reproduction developmental, oral, gavage, CD, generation: F1): 300 mg/kg-day
NOAEL (Rattus norvegicus [1]; reproduction developmental, oral, gavage, F, CD): 100 mg/kg-day
LD50 (Oryctolagus sp.; occlusive): 9030 mg/kg

CN(C)C(=O)Nc1cccc(C(F)(F)F)c1 [Fluometuron]
NOAEL (Rattus norvegicus [2]; chronic, duration: 103 weeks, oral, diet, M/F, no effects): 12.5 mg/kg-day

CC(C)C(C(=O)OC(C#N)c1cccc(Oc2ccccc2)c1)c1ccc(Cl)cc1 (stereo not drawn) [Fenvalerate]
LEL (Rattus norvegicus [2]; [8]): 7.5 mg/kg-day
NOEL (Rattus norvegicus [2]; [8]): 2.5 mg/kg-day

Oc1ccccc1Cl [2-Chlorophenol]
LOAEL (Rattus norvegicus [2]; [9]): 50 mg/kg-day
NOAEL (Rattus norvegicus [2]; [9]): 5 mg/kg-day
NOAEL (Rattus norvegicus [3]): 7.6 mg/kg-day

O=c1nc([O-])n(Cl)c(=O)n1Cl.[Na+] [Sodium dichloroisocyanurate]
LD50 (Oryctolagus sp.): > 2000 mg/kg

CN(C)c1nc(=O)n(C2CCCCC2)c(=O)n1C [Hexazinone]
LEL (Rattus norvegicus [2]; [10]): 50 mg/kg-day
NOEL (Rattus norvegicus [2]; [10]): 10 mg/kg-day

c1cc[n+]2c(c1)-c1cccc[n+]1CC2 [Diquat]
LEL (Rattus norvegicus [2]; chronic, oral, diet, F, lens opacity and cataracts): 0.72 mg/kg-day
NOEL (Rattus norvegicus [2]; chronic, oral, diet, M/F, lens opacity and cataracts): 0.22 mg/kg-day
LEL (Rattus norvegicus [2]; chronic, oral, diet, M, lens opacity and cataracts): 0.58 mg/kg-day

CC(C)Oc1cc(-n2nc(C(C)(C)C)oc2=O)c(Cl)cc1Cl [Oxadiazon]
LEL (Rattus norvegicus [2]; [11]): 5 mg/kg-day
NOEL (Rattus norvegicus [2]; [11]): 0.5 mg/kg-day

CC1=C(C)S(=O)(=O)CCS1(=O)=O [Dimethipin]
LEL (Rattus norvegicus [2]; [12]): 10 mg/kg-day
NOEL (Rattus norvegicus [2]; [12]): 2 mg/kg-day

Cl [Hydrochloric acid]
LOAEL (Rattus norvegicus [2]; chronic, inhalation, M, hyperplasia of nasal mucosa larynx and trachea): 15 mg/m3

COCCOCCOC [Diethylene glycol dimethyl ether]
NOEL (Rattus norvegicus [4]; subchronic, gavage, M, Sprague-Dawley, Hematology: Hgb decrease, Hct decrease, MCV decrease + Necropsy: Spleen: Enlargement + Histopathology: Liver/Centrilobular- Hypertrophy of …): 2.5 mg/kg-day
NOAEL (Mus musculus [5]; developmental, duration: 9 days, gavage, CD1): 62.8 mg/kg-day
NOAEL (Mus musculus [5]; reproduction developmental, duration: 9 days, gavage, F, CD1): 500 mg/kg-day
LC50 (Rattus norvegicus [1]; acute, inhalation, nose only, Wistar): > 11000 mg/m3
NOAEC (Rattus norvegicus [1]; repeat dose other, inhalation, M): 165 mg/m3
NOAEL (Rattus norvegicus [1]; short-term, duration: 2 weeks, inhalation, nose only, F): 2030 mg/m3
LOAEL (Rattus norvegicus [1]; short-term, duration: 2 weeks, inhalation, nose only, M): 604 mg/m3

COc1nc(NC(C)C)nc(NC(C)C)n1 [Prometon]
NOAEL (Rattus norvegicus [2]; subchronic, oral, diet, M/F, no effects): 15 mg/kg-day

CNNC [1,2-Dimethylhydrazine]
LOAEL (Mus musculus [6]; chronic, duration: 5 months, diet, hepatic): 0.75 mg/kg-day

ClC(Cl)=C(c1ccc(Cl)cc1)c1ccc(Cl)cc1 [p,p'-DDE]
LOEL (Rattus norvegicus [7]; [13]): 100 mg/kg-day
NOEL (Rattus norvegicus [7]; [13]): 10 mg/kg-day
LOEL (Rattus norvegicus [7]; duration: 7 days, Fischer 344, active + Antiandrogenic + anti-androgenic + PPS delayed by 5 days / single dose tested (liver wt?)): 100 mg/kg-day and 200 mg/kg-day
LOEL (Rattus norvegicus [7]; duration: 7 days, Long-Evans, active + Antiandrogenic + anti-androgenic + PPS delayed by 5 days / single dose tested (liver wt?)): 100 mg/kg-day
LOEL (Rattus norvegicus [7]; duration: 7 days, Sprague-Dawley, active + Antiandrogenic + anti-androgenic + PPS delayed by 5 days / single dose tested (liver wt?)): 100 mg/kg-day and 200 mg/kg-day
LOEL (Rattus norvegicus [7]; duration: 10 days, Sprague-Dawley, active + Negative + Antiandrogenic + anti-androgenic + PPS delayed by 5 days / single dose tested (liver wt?)): 100 mg/kg-day
NOEL (Rattus norvegicus [7]; duration: 10 days, Wistar, active + Antiandrogenic + anti-androgenic + PPS delayed by 5 days / single dose tested (liver wt?)): 16 mg/kg-day and 30 mg/kg-day
NOEL (Rattus norvegicus [7]; duration: 10 days, wistar, active + Antiandrogenic + anti-androgenic + PPS delayed by 5 days / single dose tested (liver wt?)): 10 mg/kg-day and 16 mg/kg-day and 30 mg/kg-day
LOAEL (Mus musculus [6]; [14]): 0.5 mg/kg-day

OCC(CO)(CBr)CBr [Pentaerythritol dibromide]
NOAEL (Rattus norvegicus [4]; [15]): 200 mg/kg-day
NOEL (Rattus norvegicus [4]; [15]): < 200 mg/kg-day
NOEL (Rattus norvegicus [4]; subchronic, duration: 13 weeks, diet, F, Fischer 344, Body Weight Changes: decrease + Urinalysis: Total protein increase, Urine volume increase, Specific gravity decrease + Blood Chemistry: TP …): 100 mg/kg-day
NOEL (Rattus norvegicus [4]; subchronic, duration: 13 weeks, diet, M/F, Fischer 344, Body Weight Changes: decrease + Urinalysis: Total protein increase, Urine volume increase, Specific gravity decrease + Blood Chemistry: TP …): < 120 mg/kg-day
LOAEL (Mus musculus [5]; chronic, duration: 104 weeks, diet, B6C3F1): 57.7 mg/kg-day
NOAEL (% diet) (Mus musculus [5]; reproduction developmental, diet, CD1, generation: F0): 0.1
NOAEL (% diet) (Mus musculus [5]; reproduction developmental, diet, CD1, generation: F1): 0.1
NOAEL (% diet) (Mus musculus [5]; reproduction developmental, diet, CD1, generation: F2): 0.1
LOAEL (Mus musculus [5]; subchronic, duration: 13 weeks, diet, F, B6C3F1): 123 mg/kg-day
LOAEL (Mus musculus [5]; [16]): 246 mg/kg-day
NOAEL (Mus musculus [5]; [16]): 123 mg/kg-day
LD50 (Rattus norvegicus [1]; acute, oral, gavage, Crl:CD1): 1880 mg/kg
LD50 (Rattus norvegicus [1]; acute, oral, gavage, Sprague-Dawley): > 2000 mg/kg
LOAEL (Rattus norvegicus [1]; subchronic, duration: 3 months, oral, diet, Fischer 344): 240 mg/kg-day
LOAEL (Rattus norvegicus [1]; [17]): 240 mg/kg-day
NOAEL (Rattus norvegicus [1]; [17]): 120 mg/kg-day

Clc1ccc(C(c2ccc(Cl)cc2)C(Cl)Cl)cc1 [p,p'-DDD]
LOEL (Rattus norvegicus [7]; [18]): 200 mg/kg-day
NOEL (Rattus norvegicus [7]; [18]): 40 mg/kg-day
LOAEL (Mus musculus [6]; [14]): 0.5 mg/kg-day
